The test system of this data set is skin epidermis.

Consider one substance from patent EP0308190A2, “Ultra mild skin cleansing toilet bar with selected mixed polymers” (THE PROCTER & GAMBLE COMPANY, priority 1987, dated 1989).

In the case of Cocoyl Isethionate, the “Relative Skin Barrier Penetration Value” came out at 40.
